Measurements from the NIST ThermoML archive (doi:10.1016/j.fluid.2018.07.022).

Conditions: Liquid, Pendant drop shape

[HH] [hydrogen] + O
Conditions | interfacial tension [mN/m]
298.03 K, 500 kPa | 72.3
298.03 K, 1000 kPa | 72.9
298.04 K, 2000 kPa | 73
298.04 K, 5000 kPa | 72.6
298.04 K, 7500 kPa | 72.2
298.04 K, 10100 kPa | 71.9
298.04 K, 25000 kPa | 70.3
298.05 K, 3500 kPa | 72.8
298.05 K, 45200 kPa | 68.7
298.06 K, 15000 kPa | 71.3
298.06 K, 20100 kPa | 70.8
298.06 K, 30100 kPa | 69.8
298.09 K, 39900 kPa | 69.1
322.9 K, 1000 kPa | 69.3
322.98 K, 2000 kPa | 69.3
322.99 K, 5000 kPa | 68.9
323 K, 3500 kPa | 69.1
323 K, 10000 kPa | 68.3
323 K, 15000 kPa | 67.8
323 K, 40100 kPa | 65.8
323.01 K, 20000 kPa | 67.2
323.01 K, 25000 kPa | 66.8
323.02 K, 500 kPa | 68.9
323.02 K, 30100 kPa | 66.5
372.73 K, 15000 kPa | 59
372.74 K, 500 kPa | 59.8
372.77 K, 1000 kPa | 59.7
372.77 K, 25200 kPa | 58.5
372.77 K, 29800 kPa | 58.1
372.78 K, 2000 kPa | 59.7
372.78 K, 40100 kPa | 57.6
372.81 K, 10000 kPa | 59.3
372.85 K, 20100 kPa | 58.7
372.87 K, 5000 kPa | 59.5
448.02 K, 2000 kPa | 44.1
448.04 K, 1500 kPa | 44
448.24 K, 5000 kPa | 43.8
448.28 K, 15000 kPa | 43.4
448.29 K, 10000 kPa | 43.7
448.31 K, 25000 kPa | 43.2
448.31 K, 30100 kPa | 42.9
448.33 K, 20000 kPa | 43.3
448.35 K, 40100 kPa | 43.2
